pIC50: −log10 of the molar value. Read-outs that look alike come from different tables or passages of the source.
Legend:
[1] = system: cisplatin-resistant P388 cells (P388/CDDP); experiment: Antiproliferative activity against drug-resistant tumor cells (cell count after 72 hours); format: cell-based
Procedure: (§1) Compound (I) was tested for its antiproliferative activity against lymphocytic leukemia P388 cells, adriamycin-resistant P388 cells (P388/ADM), cisplatin-resistant P388 cells (P388/CDDP), cyclophosphamide-resistant P388 cells (P388/CPM), and mitomycin C-resistant P388 cells (P388/MMC), in the manner described below.
(§2) P388 cells were suspended in an RPMI-1640 medium containing 10 % fetal calf serum, 100 units/ml penicillin, 100 µg/ml streptomycin and 20 µM 2-mercaptoethanol at a concentration of 3 x 10^4 cells/ml, and 0.1 ml of the cell suspension was put into each well of a 96-well microplate.
(§3) The cells were further incubated in the carbon dioxide incubator for 72 hours, then the culture supernatant was removed, and the number of the cells was counted using a cell counter. The number of non-treated cells was compared with that of cells treated with the compound (I), from which was obtained the concentration of the chemical that inhibited 50 % of the cell growth. This is referred to as IC50.
(§4) For the others, P388/ADM cells, P388/CDDP cells, P388/CPM cells and P388/MMC cells, IC50 of the compound (I) was obtained in the same manner as above.

[2] = system: adriamycin-resistant P388 cells (P388/ADM); experiment: as above; format: cell-based
Procedure: as §1, §2, §3, §4

[3] = system: cyclophosphamide-resistant P388 cells (P388/CPM); experiment: as above; format: cell-based
Procedure: as §1, §2, §3, §4

[4] = system: mitomycin C-resistant P388 cells (P388/MMC); experiment: as above; format: cell-based
Procedure: as §1, §2, §3, §4

[5] = system: lymphocytic leukemia P388 cells; experiment: as above; format: cell-based
Procedure: as §1
as §2, with “microplate. The cells were incubated in a carbon dioxide incubator (5 % carbon dioxide) overnight at 37°C, and 0.05 ml/well of a compound (I) that had been suitably diluted with the medium was added to each well.” for “microplate.”
as §3

[6] = Acute toxicity, intravenous administration; format: in vivo; conditions: mouse, in vivo, male ddY mice, 30 days after administration, probit analysis
Source text: (§5) Compound (I) was intravenously administered to ddY mice (male; body weight, 19 to 21 g). 30 days after the administration, LD50 and LD10 were obtained through probit analysis.

[7] = system: ddY mice; experiment: Acute toxicity, intravenous administration; format: in vivo; conditions: male ddY mice; for Death Rate: 30 days
Source text: as §5

[NH2][Pt]([NH2])([Cl])[Cl] [CDDP, Cisplatin]
pIC50 ([1]; P388/CDDP cells, 72 hours incubation, read-out: IC50): 5.39
pIC50 ([2]; P388/ADM cells, 72 hours incubation, read-out: IC50): 7.05
pIC50 ([3]; P388/CPM cells, 72 hours incubation, read-out: IC50): 6.30
pIC50 ([4]; P388/MMC cells, 72 hours incubation, read-out: IC50): 5.96
pIC50 ([5]; P388 cells, 72 hours incubation, read-out: IC50): 7.12

COC(=O)c1c(C)[nH]c2c(OC(=O)N3CCN(C)CC3)cc3c(c12)C(CBr)CN3C(=O)c1cc2cc(OC)c(OC)c(OC)c2[nH]1 (stereo not shown) [Compound 1]
LD50 at 720 h [6]: 0.81 mg/kg
Mean Survival Time ([7]; Dose 0.48 mg/kg): No died
Death Rate ([7]; Dose 0.48 mg/kg): 0/20
Mean Survival Time ([7]; Dose 0.57 mg/kg): 11.6 +/- 3.4 days +/- SD
Death Rate ([7]; Dose 0.57 mg/kg): 2/20
Mean Survival Time ([7]; Dose 0.69 mg/kg): 11.6 +/- 1.5 days +/- SD
Death Rate ([7]; Dose 0.69 mg/kg): 3/20
Mean Survival Time ([7]; Dose 0.82 mg/kg): 8.3 +/- 1.8 days +/- SD
Death Rate ([7]; Dose 0.82 mg/kg): 10/20
Mean Survival Time ([7]; Dose 0.99 mg/kg): 6.8 +/- 1.6 days +/- SD
Death Rate ([7]; Dose 0.99 mg/kg): 17/20
Mean Survival Time ([7]; Dose 1.2 mg/kg): 5.6 +/- 1.8 days +/- SD
Death Rate ([7]; Dose 1.2 mg/kg): 20/20
LD10 ([7]; 30 days after administration, probit analysis): 0.63 mg/kg
pIC50 ([1]; Mus musculus, P388, 72 h): 7.70
pIC50 ([2]; Mus musculus, P388/ADM, 72 h): 7.81
pIC50 ([3]; Mus musculus, P388, 72 h): 8.20
pIC50 ([4]; Mus musculus, P388, 72 h): 7.82
pIC50 ([5]; Mus musculus, P388, 72 h): 8.09

COc1cccc2c1C(=O)c1c(O)c3c(c(O)c1C2=O)C[C@@](O)(C(=O)CO)C[C@@H]3O[C@H]1C[C@H](N)[C@H](O)[C@H](C)O1 [ADM, Adriamycin]
pIC50 ([1]; Mus musculus, P388/CDDP cells, 72 hours incubation, read-out: IC50): 7.74
pIC50 ([2]; Mus musculus, P388/ADM cells, 72 hours incubation, read-out: IC50): 6.24
pIC50 ([3]; Mus musculus, P388/CPM cells, 72 hours incubation, read-out: IC50): 8.24
pIC50 ([4]; Mus musculus, P388/MMC cells, 72 hours incubation, read-out: IC50): 7.83
pIC50 ([5]; Mus musculus, P388 cells, 72 hours incubation, read-out: IC50): 8.18

CO[C@@]12[C@H](COC(N)=O)C3=C(C(=O)C(C)=C(N)C3=O)N1C[C@@H]1N[C@@H]12 [MMC, Mitomycin C]
pIC50 ([1]; Mus musculus, P388, 72 h): 6.73
pIC50 ([2]; Mus musculus, P388/ADM, 72 h): 7.24
pIC50 ([3]; Mus musculus, P388, 72 h): 7.03
pIC50 ([4]; Mus musculus, P388, 72 h): < 6.52
pIC50 ([5]; Mus musculus, P388, 72 h): 7.40

Source: patent EP0786252A1 (priority 1994, dated 1996)
